Results reported in PubChem BioAssay (NCI).
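Each compound was tested at five concentrations against cells in 96-well plates for 48 hours. At the TGI there is no net growth.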

Assays:
Assay in all cases: NCI tumour cell line growth inhibition, 48 h
MDA-MB-231 breast = tested on: MDA-MB-231 breast
ACHN renal = tested on: ACHN renal
NCI-H226 lung = tested on: NCI-H226 lung
SNB-75 CNS = tested on: SNB-75 CNS
OVCAR-8 ovarian = tested on: OVCAR-8 ovarian
MCF7 breast = tested on: MCF7 breast
KM12 colon = tested on: KM12 colon
PC-3 prostate = tested on: PC-3 prostate
UACC-257 melanoma = tested on: UACC-257 melanoma
HOP-92 NSCLC = tested on: HOP-92 NSCLC
HCC-2998 colon = tested on: HCC-2998 colon
HT29 colon = tested on: HT29 colon
DU-145 prostate = tested on: DU-145 prostate
HOP-62 NSCLC = tested on: HOP-62 NSCLC
CAKI-1 renal = tested on: CAKI-1 renal
M14 melanoma = tested on: M14 melanoma
SF-539 CNS = tested on: SF-539 CNS
HCT-15 colon = tested on: HCT-15 colon
CCRF-CEM leukemia = tested on: CCRF-CEM leukemia
RPMI-8226 leukemia = tested on: RPMI-8226 leukemia
IGROV1 ovarian = tested on: IGROV1 ovarian
SR leukemia = tested on: SR leukemia
HL-60(TB) leukemia = tested on: HL-60(TB) leukemia
MALME-3M melanoma = tested on: MALME-3M melanoma
SK-OV-3 ovarian = tested on: SK-OV-3 ovarian
MOLT-4 leukemia = tested on: MOLT-4 leukemia
786-0 renal = tested on: 786-0 renal
SN12C renal = tested on: SN12C renal
SK-MEL-28 melanoma = tested on: SK-MEL-28 melanoma
MDA-N = tested on: MDA-N
NCI-H23 lung = tested on: NCI-H23 lung
HCT-116 colon = tested on: HCT-116 colon
OVCAR-4 ovarian = tested on: OVCAR-4 ovarian
TK-10 renal = tested on: TK-10 renal
NCI/ADR-RES ovarian = tested on: NCI/ADR-RES ovarian
T-47D breast = tested on: T-47D breast
HS 578T breast = tested on: HS 578T breast
SF-268 CNS = tested on: SF-268 CNS
UO-31 renal = tested on: UO-31 renal
SK-MEL-2 melanoma = tested on: SK-MEL-2 melanoma
NCI-H522 lung = tested on: NCI-H522 lung
OVCAR-3 ovarian = tested on: OVCAR-3 ovarian
LOX IMVI melanoma = tested on: LOX IMVI melanoma
NCI-H460 lung = tested on: NCI-H460 lung
K-562 leukemia = tested on: K-562 leukemia
COLO 205 colon = tested on: COLO 205 colon
UACC-62 melanoma = tested on: UACC-62 melanoma
A549 NSCLC = tested on: A549 NSCLC
MDA-MB-435 = tested on: MDA-MB-435
A498 renal = tested on: A498 renal
EKVX NSCLC = tested on: EKVX NSCLC
SK-MEL-5 melanoma = tested on: SK-MEL-5 melanoma
SF-295 CNS = tested on: SF-295 CNS
U251 CNS = tested on: U251 CNS
BT-549 breast = tested on: BT-549 breast
SNB-19 CNS = tested on: SNB-19 CNS
SW-620 colon = tested on: SW-620 colon
OVCAR-5 ovarian = tested on: OVCAR-5 ovarian
RXF 393 renal = tested on: RXF 393 renal

CCOC(=O)Nc1cc2c(c(N)n1)N=C(c1ccc(Cl)cc1Cl)CN2
TGI (MDA-MB-231 breast): 16.2 µM | TGI (ACHN renal): 20.8 µM | TGI (NCI-H226 lung): 18 µM | TGI (SNB-75 CNS): 36.5 µM | TGI (OVCAR-8 ovarian): 37.2 µM | TGI (MCF7 breast): 21.7 µM | TGI (KM12 colon): 2.83 µM | TGI (PC-3 prostate): 14.9 µM | TGI (UACC-257 melanoma): 90.6 µM | TGI (HOP-92 NSCLC): 44.7 µM | TGI (HCC-2998 colon): 2.6 µM | TGI (HT29 colon): 0.641 µM | TGI (DU-145 prostate): 13.3 µM | TGI (HOP-62 NSCLC): 19.8 µM | TGI (CAKI-1 renal): 33.7 µM | TGI (M14 melanoma): 43.4 µM | TGI (SF-539 CNS): 0.0475 µM | TGI (HCT-15 colon): 9.02 µM | TGI (CCRF-CEM leukemia): > 100 µM | TGI (RPMI-8226 leukemia): > 100 µM | TGI (IGROV1 ovarian): 34.3 µM | TGI (SR leukemia): > 100 µM | TGI (HL-60(TB) leukemia): 0.0585 µM | TGI (MALME-3M melanoma): 29.6 µM | TGI (SK-OV-3 ovarian): 23.2 µM | TGI (MOLT-4 leukemia): > 100 µM | TGI (786-0 renal): 18.5 µM | TGI (SN12C renal): 28.8 µM | TGI (SK-MEL-28 melanoma): 29.5 µM | TGI (MDA-N): 18.6 µM | TGI (NCI-H23 lung): 27.5 µM | TGI (HCT-116 colon): 12.7 µM | TGI (OVCAR-4 ovarian): 39.7 µM | TGI (TK-10 renal): 35.4 µM | TGI (NCI/ADR-RES ovarian): 18.9 µM | TGI (T-47D breast): 43.1 µM | TGI (HS 578T breast): 1.41 µM | TGI (SF-268 CNS): 25.5 µM | TGI (UO-31 renal): 22.7 µM | TGI (SK-MEL-2 melanoma): 19.7 µM | TGI (NCI-H522 lung): 1.08 µM | TGI (OVCAR-3 ovarian): 0.0133 µM | TGI (LOX IMVI melanoma): 44.8 µM | TGI (NCI-H460 lung): 6.3 µM | TGI (K-562 leukemia): 11.9 µM | TGI (COLO 205 colon): 4.85 µM | TGI (UACC-62 melanoma): 11.6 µM | TGI (A549 NSCLC): 19.3 µM | TGI (MDA-MB-435): < 0.0239 µM | TGI (A498 renal): 20.6 µM | TGI (EKVX NSCLC): 31.9 µM | TGI (SK-MEL-5 melanoma): 0.999 µM | TGI (SF-295 CNS): 0.0108 µM | TGI (U251 CNS): 18 µM | TGI (BT-549 breast): 33.1 µM | TGI (SNB-19 CNS): 23.2 µM | TGI (SW-620 colon): 30.4 µM | TGI (OVCAR-5 ovarian): 45.1 µM

CC(C)C(Sc1nc(N)nc2nc[nH]c12)C(=O)O (centres undefined)
TGI (MDA-MB-231 breast): > 100 µM | TGI (ACHN renal): > 100 µM | TGI (RXF 393 renal): > 100 µM | TGI (NCI-H226 lung): > 100 µM | TGI (SNB-75 CNS): > 100 µM | TGI (OVCAR-8 ovarian): > 100 µM | TGI (MCF7 breast): > 100 µM | TGI (KM12 colon): > 100 µM | TGI (PC-3 prostate): > 100 µM | TGI (UACC-257 melanoma): > 100 µM | TGI (HCC-2998 colon): > 100 µM | TGI (HT29 colon): > 100 µM | TGI (DU-145 prostate): > 100 µM | TGI (HOP-62 NSCLC): > 100 µM | TGI (CAKI-1 renal): > 100 µM | TGI (M14 melanoma): > 100 µM | TGI (HCT-15 colon): > 100 µM | TGI (CCRF-CEM leukemia): > 100 µM | TGI (RPMI-8226 leukemia): > 100 µM | TGI (IGROV1 ovarian): > 100 µM | TGI (SR leukemia): > 100 µM | TGI (HL-60(TB) leukemia): > 100 µM | TGI (MALME-3M melanoma): > 100 µM | TGI (SK-OV-3 ovarian): > 100 µM | TGI (786-0 renal): > 100 µM | TGI (SN12C renal): > 100 µM | TGI (SK-MEL-28 melanoma): > 100 µM | TGI (MDA-N): > 100 µM | TGI (NCI-H23 lung): > 100 µM | TGI (HCT-116 colon): > 100 µM | TGI (OVCAR-4 ovarian): > 100 µM | TGI (TK-10 renal): > 100 µM | TGI (NCI/ADR-RES ovarian): > 100 µM | TGI (T-47D breast): > 100 µM | TGI (HS 578T breast): > 100 µM | TGI (SF-268 CNS): > 100 µM | TGI (UO-31 renal): > 100 µM | TGI (SK-MEL-2 melanoma): > 100 µM | TGI (NCI-H522 lung): > 100 µM | TGI (OVCAR-3 ovarian): > 100 µM | TGI (LOX IMVI melanoma): > 100 µM | TGI (NCI-H460 lung): > 100 µM | TGI (K-562 leukemia): > 100 µM | TGI (COLO 205 colon): > 100 µM | TGI (UACC-62 melanoma): > 100 µM | TGI (A549 NSCLC): > 100 µM | TGI (MDA-MB-435): > 100 µM | TGI (A498 renal): > 100 µM | TGI (EKVX NSCLC): > 100 µM | TGI (SK-MEL-5 melanoma): > 100 µM | TGI (SF-295 CNS): > 100 µM | TGI (U251 CNS): > 100 µM | TGI (BT-549 breast): > 100 µM | TGI (SNB-19 CNS): > 100 µM | TGI (SW-620 colon): > 100 µM | TGI (OVCAR-5 ovarian): > 100 µM
